Results: paper PMC8042727, “Apoptosis-like cell death upon kinetoplastid induction by compounds isolated from the brown algae Dictyota spiralis” (Parasites & Vectors, 2021)

Assays:
[1] = system: Trypanosoma cruzi epimastigotes (Y strain); experiment: In vitro evaluation on T. cruzi epimastigotes (AlamarBlue, 72 h); assay type: cell-based; details: nonlinear regression of AlamarBlue curve, read-out: IC90 Trypanosoma cruzi: epimastigote
Experimental: Experiments including in vitro activity assays of isolated compounds 1–3 were performed against the promastigote and amastigote stages of Leishmania amazonensis (MHOM/BR/77/LTB0016) and the epimastigote stage of Trypanosoma cruzi (Y strain). Promastigotes of L. amazonensis were cultured in Schneider’s medium (Sigma-Aldrich, St. Louis, MO, USA). Typanosoma cruzi strain Y was cultured in liver Infusion tryptose (LIT) medium. The three molecules 1-3 were tested against epimastigotes of T. cruzi. Briefly, the molecules were dissolved in DMSO in 96-well plates and a serially diluted concentration was made in 100 μl of LIT medium supplemented with 10% heat-inactivated FBS. In all tests, a maximum of 1% DMSO was used to dissolve the highest dose of the compounds without inducing any effects on the parasites; epimastigotes in the logarithmic growth phase were then counted, adjusted to 5 × 10^5 cells/ml, distributed on the previous 96-well plate and incubated at 27 °C for 72 h. The plate was observed under an inverted microscope after 72 h of incubation and analyzed statistically as described for the leishmanicidal test. Hoechst dye is a blue-fluorescent dye that stains condensed chromatin of apoptotic cells. To detect DNA condensation, the chromatin condensation/dead cell apoptosis kit was used (Invitrogen, Thermo Fisher Scientific, Waltham, MA, USA). Cells were incubated in the presence of the compounds to be tested at IC90. The IC90 values were determined using nonlinear regression of the AlamarBlue® curve. After 24 h of incubation, cells were harvested and resuspended in medium, following which 1 μl of Hoechst 33342 stock solution was added to parasites and incubated for 20 min. Results were analyzed by cell imaging using the Evos FL cell imaging system (Thermo Fisher Scientific). The experiments were repeated using a double-stain apoptosis detection kit (Hoechst 33342/PI; Thermo Fisher Scientific). […] A positive control was also tested: miltefosine (L. amazonensis) and benznidazole (T. cruzi).

[2] = system: Trypanosoma cruzi; experiment: ATP level (CellTiter-Glo); assay type: cell-based; details: T. cruzi, IC90, 24 h, relative to negative control
Experimental: The CellTiter-Glo® luminescent cell viability assay (Promega, WI, USA) was used to quantify the adenosine triphosphate (ATP) concentration. Cells of the kinetoplastid strains (for both L. amazonensis [2 × 10^6 cells/ml] and T. cruzi [5 × 10^5cells/ml]) were incubated for 24 h with the compounds to be tested, at IC90 and 26 °C. After incubation, the cells were centrifuged and resuspended in 100 μl. To this volume, we added 100 μl of the reactive in white 96-well plates. After incubation, the luminescence signal was measured using the Enspire multimode plate reader. The decrease in ATP level was expressed as a percentage relative to the negative control. Miltefosine and benznidazole were tested as the positive control for L. amazonensis and T. cruzi, respectively.

[3] = system: Trypanosoma cruzi; experiment: Oxidative stress / ROS accumulation (CellROX Deep Red); assay type: cell-based; details: T. cruzi, IC90, 24 h
Experimental: (§1) The reagent used for this assay was a fluorogenic probe to measure cellular oxidative stress upon oxidation by reactive oxygen species (ROS). To perform the test, cells were incubated with the compounds to be tested, at IC90 for 24 h. The cells were centrifuged and resuspended in a volume of 50 μl, following which CellROX™ Deep Red oxidative stress reagent (Thermo-Fisher Scientific) was added to 96-well plates at […]. The plates were then incubated for 30 min at 37 °C. After incubation, the results were analyzed by cell imaging using the Evos cell imaging system. Cells treated with different compounds were compared with untreated control cells and the positive control. Fluorescence intensity was also measured using the Enspire multimode plate reader at excitation/emission wavelengths of 640/665 nm. Accumulation ROS at the cellular level is a good indicator of oxidative stress and is precursor to a chain reaction leading damage at the cellular level to proteins, nucleic acids, lipids, membrane and organelles. These cellular alterations can lead to activation of the cell death process. As such, ROS play an important role in cell signaling and the apoptosis pathway. An intracellular excess of ROS can be detected by the cell-permeable CellROX™ Deep Red reagent, which is a fluorogenic ROS sensor.

[4] = Cytotoxicity on macrophages (AlamarBlue, 24 h); assay type: cell-based; details: mouse, J774A.1 macrophages, J774A.1, 24 h, read-out: CC50: murine macrophages
Experimental: Cytotoxicity of the tested molecules was evaluated after 24 h using macrophages of the murine cell line J774.A1 (American Type Culture Collection #TIB-67). The cells were maintained in DMEM medium at 37 °C in a 5% CO2 humidified incubator. The viability of the macrophages was determined with the AlamarBlue assay and the emitted fluorescence was assayed in an Enspire microplate reader (PerkinElmer Inc.) at 570/585 nm. Briefly, 50 µl of macrophages was placed in a 96-well flat bottom plate at a density of 2 × 10^5/ml in RPMI medium supplemented with 10% FBS without phenol. Cells were allowed to adhere for 15 min, and their progress was checked using a Leika inverted microscope (Leika Camera AG, Wetzlar, Germany). At the same time, a serially dilution of the test compounds was made in a deep 96-well plate with the same medium, and then 50 µl of each serially diluted molecule was added to each well of the 96-well flat bottom plate. Finally, 10% of AlamarBlue was added to each well. The plates were incubated at 37 °C in 5% CO2 for 24 h. Dose–response curves were plotted and the 50% cytotoxic concentrations (CC50) were obtained. The analyses were performed in triplicate.

[5] = system: L. amazonensis; set-up: method as in PMID 22970332; details: read-out: IC50 (inhibition of infection by L. amazonensis); cited from earlier work
[6] = system: T. cruzi; set-up: method as in PMID 23442789; details: read-out: IC50 against T. cruzi; cited from earlier work
[7] = system: Leishmania amazonensis promastigotes; experiment: DNA condensation assay (Hoechst 33342 / PI); assay type: cell-based; details: L. amazonensis promastigotes, IC90, 24 h
Experimental: (§2) Hoechst dye is a blue-fluorescent dye that stains condensed chromatin of apoptotic cells. To detect DNA condensation, the chromatin condensation/dead cell apoptosis kit was used (Invitrogen, Thermo Fisher Scientific, Waltham, MA, USA). Cells were incubated in the presence of the compounds to be tested at IC90. The IC90 values were determined using nonlinear regression of the AlamarBlue® curve. After 24 h of incubation, cells were harvested and resuspended in medium, following which 1 μl of Hoechst 33342 stock solution was added to parasites and incubated for 20 min. Results were analyzed by cell imaging using the Evos FL cell imaging system (Thermo Fisher Scientific). The experiments were repeated using a double-stain apoptosis detection kit (Hoechst 33342/PI; Thermo Fisher Scientific). […] A positive control was also tested: miltefosine (L. amazonensis) and benznidazole (T. cruzi).
DNA condensation is an important cellular event, providing evidence of apoptotic cell death. Hoechst dye is a blue-fluorescent dye that stains condensed chromatin. […] Also, using propidium iodine (PI), it is possible to distinguish dead cells, which stain red when PI penetrates the nucleus. The results of staining were evaluated using cell imaging. Different microscopy images are regrouped in Fig. 2 (for L. amazonensis) and Fig. 3 (for T. cruzi). […] A clear reduction in cell number is also evident.

[8] = system: Leishmania amazonensis promastigotes; experiment: Anti-promastigotes assay (AlamarBlue, 72 h); assay type: cell-based
Experimental: Experiments including in vitro activity assays of isolated compounds 1–3 were performed against the promastigote and amastigote stages of Leishmania amazonensis (MHOM/BR/77/LTB0016) and the epimastigote stage of Trypanosoma cruzi (Y strain). Promastigotes of L. amazonensis were cultured in Schneider’s medium (Sigma-Aldrich, St. Louis, MO, USA). Typanosoma cruzi strain Y was cultured in liver Infusion tryptose (LIT) medium.
The bioassay was performed using the AlamarBlue® method as previously described. Promastigotes of L. amazonensis were grown at 26 °C in RPMI 1640 modified medium (Gibco BRL Life Technologies Inc., Gaithersburg, MD, USA) and supplemented with 10% heat-inactivated fetal bovine serum (FBS). Cultures in the logarithmic phase were seeded in sterilized 96-well microtiter plates (Corning™, Corning, NY, USA) (10^6 parasites/ml) containing the samples dissolved in 1% DMSO at the suitable concentration to be tested in serial dilutions, and Leishmania medium (RPMI 1640) was used to reach a final volume of 200 μl per well; then 10% of AlamarBlue® was added to the entire plate. After an incubation of 72 h, the plate was checked visually using an inverted microscope, then analyzed using an Enspire multimode plate reader (PerkinElmer, Inc., Waltham, MA, USA) at excitation and emission wavelengths of 570 and 585 nm, respectively. Dose–response curves were plotted, and the concentration at which one half of the maximal inhibitory effect was obtained (IC50) was determined. The analyses were performed in triplicate.
as §2

[9] = system: Leishmania amazonensis; experiment: Oxidative stress / ROS accumulation (CellROX Deep Red); assay type: cell-based; details: L. amazonensis, IC90, 24 h
Experimental: as §1

[10] = system: Leishmania amazonensis amastigotes; experiment: Anti-amastigotes assay (intra-macrophagic stage, J774A.1); assay type: cell-based; details: J774.A1; Leishmania amazonensis, intracellular in J774A.1; read-out: IC50: amastigote
Experimental: The three molecules 1-3 were tested against the intra-macrophagic stage of L. amazonensis as previously described. Briefly, in a 96-well, flat-bottom plate, macrophages of the J774A.1 cell line (American Type Culture Collection #TIB-67) were cultured at a density of 2 × 10^5 cells/ml in RPMI 1640 medium supplemented with 10% heat-inactivated FBS and incubated for 1 h at 37 °C in a 5% CO2 atmosphere to allow almost complete attachment of the cells. The macrophages were then infected with L. amazonensis promastigotes in the stationary phase (7-day-old culture) at a ratio of 1:10 (macrophage:parasite) at a concentration of 2 × 10^6 cells/ml and incubated at 37 °C in 5% CO2 for 24 h. Wells were washed with medium to remove external promastigotes. Thereafter, the infected macrophages were treated with the serially diluted concentrations of the pure compounds for 24 h, following which the medium was removed carefully and replaced by 30 μl of new medium containing 0.05% sodium dodecyl sulfate and the plate shaken for 30 s. Subsequently, 170 μl of Schneider’s medium was added to each well to give a final volume of 200 μl, and 20 μl of AlamarBlue® was added to the plate; the plate was then incubated at 26 °C for 72 h, following which the plates were analyzed using the same protocol as for the promastigotes assay.

## O=C(Cn1ccnc1[N+](=O)[O-])NCc1ccccc1 [Benznidazole, reference compound]
[1]
  IC90: 25.6 µM
[2]
  decrease in ATP concentration: > 80%
[3]
  ROS accumulation (fluorescence vs negative control): significant increase in fluorescence
[4]
  CC50 at 24 h: 400 µM

## C[C@H]1/C=C/[C@@]2(C)CC[C@@H](C(C)(C)O)[C@@H]2[C@@H](O)C[C@](C)(O)/C=C/C1 [Dolabelladienetriol]
[5]
  IC50: 44 µM

## CC(C)=CC(=O)C/C(C)=C/CC/C(C)=C/CC/C(C)=C/CO [Eleganolone]
[6]
  IC50: 58 µM

## CCCCCCCCCCCCCCCCOP(=O)([O-])OCC[N+](C)(C)C [Miltefosine, reference compound]
[7]
  chromatin condensation / cell death stage (Hoechst/PI staining): dead cells
[8]; 72 h, read-out: IC50: promastigote
  IC50: 6.47 ± 0.58 µM
[8]; nonlinear regression of AlamarBlue curve, read-out: IC90 Leishmania amazonensis: promastigote
  IC90: 9.63 µM
[9]
  ROS accumulation (fluorescence vs negative control): more remarkable
[4]
  CC50 at 24 h: 72.2 µM
[10]
  IC50: 3.11 µM
